The values that follow come from PMC6102129, “Epigallocatechin-3-gallate remodels apolipoprotein A-I amyloid fibrils into soluble oligomers in the presence of heparin” (The Journal of Biological Chemistry, 2018).

In the assay the target is T1, monomeric apoA-I (Homo sapiens, UniProt P02647).
T1 construct: gene APOA1; mature apoA-I residues 3-243 from E. coli BL21(DE3), His tag removed by formic acid at Asp2-Pro3; soluble, lipid-free, monomeric, pH 7
The experiment in a line: WaterLOGSY NMR. The assay is classed as binding. As to conditions: 36 μM apoA-I, phosphate buffer pH 7, no heparin.

T1 sequence (P02647 27-267): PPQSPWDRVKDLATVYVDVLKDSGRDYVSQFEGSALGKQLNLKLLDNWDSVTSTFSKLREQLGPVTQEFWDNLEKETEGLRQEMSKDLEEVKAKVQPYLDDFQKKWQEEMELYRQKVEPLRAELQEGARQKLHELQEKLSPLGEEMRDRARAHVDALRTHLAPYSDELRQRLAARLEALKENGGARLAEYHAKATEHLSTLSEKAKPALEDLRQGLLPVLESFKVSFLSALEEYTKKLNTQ

Regarding `O=C(O[C@@H]1Cc2c(O)cc(O)cc2O[C@@H]1c1cc(O)c(O)c(O)c1)c1cc(O)c(O)c(O)c1` [compound 5, EGCG], the “WaterLOGSY NMR” value was “peaks from EGCG broaden and take the opposite sign to the TSP peak”.
